Measured values taken from patent publication US20230086703A1, “N-(4-(5-chloropyridin-3-yl)phenyl)-2-(2-(cyclopropanesulfonamido)pyrimidin-4-yl) butanamide derivatives and related compounds as human CTPS1 inhibitors for the treatment of proliferative diseases” (Step Pharma S.A.S., priority 2019, published 2023).

Target: T1, human CTPS1 (Homo sapiens, UniProt P17812)
T1 construct: FLAG (with GG linker); His8 (with GG linker); purchased Proteros biostructures GmbH
T1 sequence (P17812 1-591): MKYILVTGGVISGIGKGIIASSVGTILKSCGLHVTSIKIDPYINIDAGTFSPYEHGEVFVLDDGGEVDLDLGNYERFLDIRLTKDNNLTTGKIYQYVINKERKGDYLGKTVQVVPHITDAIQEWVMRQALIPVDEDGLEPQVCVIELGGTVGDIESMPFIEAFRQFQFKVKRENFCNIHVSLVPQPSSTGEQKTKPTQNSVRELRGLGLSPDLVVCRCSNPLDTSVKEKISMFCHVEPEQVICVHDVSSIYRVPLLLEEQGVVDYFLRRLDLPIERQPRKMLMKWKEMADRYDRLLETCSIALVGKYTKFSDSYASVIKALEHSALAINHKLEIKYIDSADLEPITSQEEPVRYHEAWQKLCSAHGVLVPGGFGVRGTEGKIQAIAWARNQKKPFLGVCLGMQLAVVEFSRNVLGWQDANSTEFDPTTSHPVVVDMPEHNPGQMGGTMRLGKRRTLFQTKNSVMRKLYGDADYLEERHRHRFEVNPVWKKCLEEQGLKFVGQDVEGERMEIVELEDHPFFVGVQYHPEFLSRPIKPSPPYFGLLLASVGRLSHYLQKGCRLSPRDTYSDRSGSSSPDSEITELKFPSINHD
Assay: RapidFire/MS-based enzyme selectivity assay (human CTPS1 versus CTPS2), CTPS1 isoform
Type: biochemical
Conditions: RapidFire/MS IC50 values of CTPS1 and CTPS2; Table 17
How it was run: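 Full-length C-terminal FLAG-His-tagged CTPS1 (1-591) was preincubated 10 min at 25 °C with compound in HEPES pH 8.0 buffer with MgCl2, KCl, DTT and Tween-20. Reactions were started with a 2× mix of ATP 0.3 mM, UTP 0.2 mM, GTP 0.07 mM and L-glutamine 0.1 mM, and run in the linear phase at 25 °C. IC50 comes from the RapidFire-MS ratio of CTP to 13C9-15N3-CTP.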

Selectivity (fold selectivity between CTPS1 and CTPS2) | SMILES
+++ (>60 fold (+++)) | CCOc1cncc(-c2ccc(NC(=O)C3(c4ccnc(NS(=O)(=O)C5CC5)n4)CCC(=O)CC3)nc2)n1 [P226, 1-(2-(Cydopropanesulfonamido)pyrimidin-4-yl)-N-(5-(6-ethoxypyrazin-2-yl)pyridin-2-yl)-4-oxocyclohexanecarboxamide]
+++ (>60 fold (+++)) | CCOc1cncc(-c2ccc(NC(=O)C3(c4ccnc(NS(=O)(=O)C5CC5)n4)CCC(F)(F)CC3)nc2)n1 [P242]
+++ (>60 fold (+++)) | CCOc1cncc(-c2ccc(NC(=O)C3(c4ccnc(NS(=O)(=O)C5CC5)n4)CCC4(CC3)OCCO4)nc2)n1 [P244, 8-(2-(cydopropanesulfonamido)pyrimidin-4-yl)-N-(5-(6-ethoxypyrazin-2-yl)pyridin-2-yl)-1,4-dioxaspiro[4.5]decane-8-carboxamide]
+++ (>60 fold (+++)) | CCOc1cncc(-c2ccc(NC(=O)C3(c4ccnc(NS(=O)(=O)N(C)C)n4)CCOCC3)nc2)n1 [P248]
+++ (>60 fold (+++)) | CCOc1cncc(-c2ccc(NC(=O)C3(c4ccnc(NS(=O)(=O)C5CC5)n4)CCN(S(C)(=O)=O)CC3)nc2)n1 [P251]

Same assay, conditions: Table 16, human CTPS1 over human CTPS2, RapidFire/MS IC50 values

Selectivity (fold selectivity between CTPS1 and CTPS2) | SMILES
+ (2-30 fold (+)) | CCC(NC(=O)c1ccc(-c2cncc(C(F)(F)F)n2)cc1)c1csc(NS(=O)(=O)C2CC2)n1 (stereo not shown) [R5, N-(1-(2-(cyclopropanesulfonamido)thiazol-4-yl)propyl)-4-(6-(trifluoromethyl)pyrazin-2-yl)benzamide]
++ (>30-60 fold (++)) | CCOc1cncc(-c2ccc(C(=O)NC(C)(C)c3csc(NS(=O)(=O)C4CC4)n3)c(OC)c2)n1 [R7, N-(2-(2-(cyclopropanesulfonamido)thiazol-4-yl)propan-2-yl)-4-(6-ethoxypyrazin-2-yl)-2-methoxybenzamide]
++ (>30-60 fold (++)) | CCOc1cncc(-c2ccc(C(=O)NCc3csc(NS(=O)(=O)C4CC4)n3)c(F)c2)n1 [R11, N-((2-(cyclopropanesulfon-amido)thiazol-4-yl)methyl)-4-(6-ethoxypyrazin-2-yl)-2-fluorobenzamide]
++ (>30-60 fold (++)) | CCC(CC)(NC(=O)c1ccc(-c2cncc(C(F)(F)F)n2)cc1)c1csc(NS(=O)(=O)C2CC2)n1 [R19, N-(3-(2-(cyclopropanesulfon-amido)thiazol-4-yl)pentan-3-yl)-4-(6-(trifluoromethyl)pyrazin-2-yl)benzamide]
++ (>30-60 fold (++)) | CCOc1cncc(-c2cnc(C(=O)NC(C)(C)c3csc(NS(=O)(=O)C4CC4)n3)c(F)c2)n1 [R23, N-(2-(2-(cyclopropanesulfon-amido)thiazol-4-yl)propan-2-yl)-5-(6-ethoxypyrazin-2-yl)-3-fluoropicolinamide]
++ (>30-60 fold (++)) | CC(C)(NC(=O)c1ccc(-c2cncc(Cl)n2)cn1)c1csc(NS(=O)(=O)C2CC2)n1 [R25, 5-(6-chloropyrazin-2-yl)-N-(2-(2-(cyclopropanesulfonamido)thiazol-4-yl)propan-2-yl)picolinamide]
+++ (>60 fold (+++)) | CCOc1cncc(-c2ccc(C(=O)NC(C)(C)c3csc(NS(=O)(=O)C4CC4)n3)nc2)n1 [R26, N-(2-(2-(cyclopropanesulfon-amido)thiazol-4-yl)propan-2-yl)-5-(6-ethoxypyrazin-2-yl)picolinamide]
++ (>30-60 fold (++)) | CCc1cncc(-c2ccc(C(=O)NC(C)(C)c3csc(NS(=O)(=O)C4CC4)n3)c(F)c2)n1 [R41, N-(2-(2-(cyclopropanesulfon-amido)thiazol-4-yl)propan-2-yl)-4-(6-ethylpyrazin-2-yl)-2-fluorobenzamide]
++ (>30-60 fold (++)) | CC(C)(NC(=O)c1ccc(-c2cncc(C(F)(F)F)n2)cc1F)c1csc(NS(=O)(=O)C2CC2)n1 [R42, N-(2-(2-(cyclopropanesulfonamido)thiazol-4-yl)propan-2-yl)-2-fluoro-4-(6-(trifluoromethyl)pyrazin-2-yl)benzamide]
++ (>30-60 fold (++)) | CC(C)Oc1cncc(-c2ccc(C(=O)NC(C)(C)c3csc(NS(=O)(=O)C4CC4)n3)c(F)c2)n1 [R43, N-(2-(2-(cyclopropanesulfonamido)thiazol-4-yl)propan-2-yl)-2-fluoro-4-(6-isopropoxypyrazin-2-yl)benzamide]
++ (>30-60 fold (++)) | Cc1cc(-c2cncc(C(F)(F)F)n2)ccc1C(=O)NC(C)(C)c1csc(NS(=O)(=O)C2CC2)n1 [R45, N-(2-(2-(cyclopropanesulfonamido)thiazol-4-yl)propan-2-yl)-2-methyl-4-(6-(trifluoromethyl)pyrazin-2-yl)benzamide]
+ (2-30 fold (+)) | CCOc1cncc(-c2ccc(C(=O)NC(C)(C)c3csc(NS(=O)(=O)C4CC4)n3)c(C)c2)n1 [R46, N-(2-(2-(cyclopropanesulfonamido)thiazol-4-yl)propan-2-yl)-4-(6-ethoxypyrazin-2-yl)-2-methyl benzamide]
+ (2-30 fold (+)) | CCOc1cncc(-c2ccc(C(=O)NC(C)(C)c3csc(NS(=O)(=O)C4CC4)n3)c(C(F)(F)F)c2)n1 [R47, N-(2-(2-(cyclopropanesulfonamido)thiazol-4-yl)propan-2-yl)-4-(6-ethoxypyrazin-2-yl)-2-(trifluoromethyl)benzamide]
++ (>30-60 fold (++)) | COc1cc(-c2cncc(C(F)(F)F)n2)ccc1C(=O)NC(C)(C)c1csc(NS(=O)(=O)C2CC2)n1 [R48, N-(2-(2-(cyclopropanesulfonamido)thiazol-4-yl)propan-2-yl)-2-methoxy-4-(6-(trifluoromethyl)pyrazin-2-yl)benzamide]
++ (>30-60 fold (++)) | CC(C)(NC(=O)c1ccc(-c2cncc(C(F)(F)F)n2)cc1)c1csc(NS(=O)(=O)C2CC2)n1 [R51, N-(2-(2-(cyclopropanesulfon-amido)thiazol-4-yl)propan-2-yl)-4-(6-(trifluoromethyl)pyrazin-2-yl)benzamide]
+++ (>60 fold (+++)) | CC(C)(NC(=O)c1ccc(-c2cncc(Cl)n2)cc1)c1csc(NS(=O)(=O)C2CC2)n1 [R52, 4-(6-chloropyrazin-2-yl)-N-(2-(2-(cyclopropanesulfon-amido)thiazol-4-yl)propan-2-yl)benzamide]
+ (2-30 fold (+)) | COc1cncc(-c2ccc(C(=O)NC(C)(C)c3csc(NS(=O)(=O)C4CC4)n3)cc2)n1 [R54, N-(2-(2-(cyclopropanesulfon-amido)thiazol-4-yl)propan-2-yl)-4-(6-methoxypyrazin-2-yl)benzamide]
+++ (>60 fold (+++)) | CCOc1cncc(-c2ccc(C(=O)NC(C)(C)c3csc(NS(=O)(=O)C4CC4)n3)cc2)n1 [R55, N-(2-(2-(cyclopropanesulfon-amido)thiazol-4-yl)propan-2-yl)-4-(6-ethoxypyrazin-2-yl)benzamide]
+++ (>60 fold (+++)) | CC(C)Oc1cncc(-c2ccc(C(=O)NC(C)(C)c3csc(NS(=O)(=O)C4CC4)n3)cc2)n1 [R56, N-(2-(2-(cyclopropanesulfon-amido)thiazol-4-yl)propan-2-yl)-4-(6-isopropoxypyrazin-2-yl)benzamide]
+ (2-30 fold (+)) | CCOc1cncc(-c2ccc(C(=O)NC(C)(C)c3nc(NS(=O)(=O)C4CC4)sc3Cl)nc2)n1 [R73]
++ (>30-60 fold (++)) | CCOc1cncc(-c2ccc(C(=O)NC(C)(C)c3nc(NS(=O)(=O)C4CC4)sc3C)c(F)c2)n1 [R74, N-(2-(2-(cyclopropanesulfon-amido)-5-methylthiazol-4-yl)propan-2-yl)-4-(6-ethoxypyrazin-2-yl)-2-fluorobenzamide]
+++ (>60 fold (+++)) | CCOc1cncc(-c2ccc(C(=O)NC(C)(C)c3nc(NS(=O)(=O)C4CC4)sc3Cl)c(F)c2)n1 [R75, N-(2-(5-chloro-2-(cycloprop-anesulfonamido)thiazol-4-yl)propan-2-yl)-4-(6-ethoxypyrazin-2-yl)-2-fluorobenzamide]
+ (2-30 fold (+)) | Cc1cc(-c2cncc(C(F)(F)F)n2)ccc1C(=O)NC(C)(C)c1nc(NS(=O)(=O)C2CC2)sc1C [R76, N-(2-(2-(cyclopropanesulfon-amido)-5-methylthiazol-4-yl)propan-2-yl)-2-methyl-4-(6-(trifluoromethyl)pyrazin-2-yl)benzamide]
